Test system: MDA-pc3 and MDA-B6 cells
Experiment: Cell death assays (propidium iodide and 7-AAD staining)
Format: cell-based, human
Conditions: MDA-pc3 vs MDA-B6, 25 nM, 72 h (FIGS. 5A, 5B)
Description: FIG. 5. Inhibition of SRC induces cell death more efficiently in EPHB6-deficient cells. A. MDA-pc3, and MDA-B6 cells were cultured in glass-bottom plates in the presence of 25 nM KX2-391 or DMSO for 72 h and stained with 2.7 μg/mL propidium iodide (PI) in phenol red-free medium. Stained cells were imaged at 200× magnification using Zeiss LSM 700 confocal microscope and PI-stained cells were counted in at least 10 randomly captured frames. Counts of PI-positive cells were normalized on the total cell numbers in matching frames. […] B. MDA-pc3 and MDA-B6 cells were cultured in 6-well plates in the presence of 25 nM KX2-391 or a matching volume of DMSO for 72 h. Cells were collected and stained for 7-AAD for 15 minutes at room temperature. Cells were analyzed by flow cytometry and the FlowJo software. […] All experiments were performed at least three times. Scale bar, 100 μm. *, P<0.05, Student's t-test.
For propidium iodide (PI) staining, MDA-MB-231 and BT-20 cells were incubated in glass-bottom plates (MatTek, Ashland, Mass., USA) for 72 h and 96 h, respectively, with KX2-391 and matching volumes of DMSO. […] The amount of PI-stained cells was analyzed by microscopy using a Zeiss Observer Z1 at 200× magnification. […] PI-stained cells were counted in at least 10 randomly captured frames, normalized on the total number of cells in matching frames and compared between DMSO controls and treated cells. […]

O=C(Cc1ccc(-c2ccc(OCCN3CCOCC3)cc2)cn1)NCc1ccccc1 [KX2-391]
induction of cell death (Propidium Iodide or 7-AAD staining): more efficient in inducing cell death, when the EPHB6 receptor is not expressed
